This is an account of results in patent publication US10759783B2, “Biaryl inhibitors of Bruton'S tyrosine kinase” (BIOGEN MA INC., priority 2013, dated 2020).

The target of assay [1] is BTK (phospho-BTK) in human whole blood (Homo sapiens, UniProt Q06187). Kind of assay: In vitro PD assay in human whole blood (pBTK assay).
A further assay deals with T1, BTK enzyme (Homo sapiens, UniProt Q06187).
T1 construct: purchased Upstate 14-552
Put plainly: In vitro BTK kinase assay: BTK-POLYGAT-LS assay. The format is biochemical. Conditions: ATP 10 μM, read-out: IC50 (10uMATP). The method, boiled down: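 Human BTK activity was measured with final 10 μM ATP and 100 nM polyGAT substrate in pH 7.5 Tris buffer with 10 mM MgCl2, DTT, Triton X-100 and casein.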

T1 sequence (Q06187 whole entry): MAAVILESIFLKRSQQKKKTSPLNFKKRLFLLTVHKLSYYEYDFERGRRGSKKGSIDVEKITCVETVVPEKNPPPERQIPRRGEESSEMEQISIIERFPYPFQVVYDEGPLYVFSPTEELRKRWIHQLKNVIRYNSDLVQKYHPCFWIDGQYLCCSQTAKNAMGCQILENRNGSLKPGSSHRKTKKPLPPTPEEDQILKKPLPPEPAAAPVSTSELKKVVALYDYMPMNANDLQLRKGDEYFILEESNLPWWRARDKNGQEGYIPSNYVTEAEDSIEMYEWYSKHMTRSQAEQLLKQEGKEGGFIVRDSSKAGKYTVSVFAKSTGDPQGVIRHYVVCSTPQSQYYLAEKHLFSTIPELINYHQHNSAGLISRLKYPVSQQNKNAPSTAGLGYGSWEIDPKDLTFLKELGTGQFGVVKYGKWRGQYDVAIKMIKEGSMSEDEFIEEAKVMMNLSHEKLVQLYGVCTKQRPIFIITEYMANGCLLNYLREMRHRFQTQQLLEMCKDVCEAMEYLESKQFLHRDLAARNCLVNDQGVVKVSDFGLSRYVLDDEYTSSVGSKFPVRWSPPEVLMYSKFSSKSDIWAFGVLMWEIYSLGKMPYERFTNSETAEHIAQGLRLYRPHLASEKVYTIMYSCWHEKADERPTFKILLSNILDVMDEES
Sequence of BTK (phospho-BTK) in human whole blood (Q06187 whole entry): as above

For `Cc1cc(-c2ccnc(Nc3cnn([C@H]4CC[C@@H](C(=O)O)CC4)c3)n2)ccc1CNC(=O)c1cnc(C(C)(C)C)s1` [Example I-48, cis-4-(4-((4-(4-((2-(tert-butyl)thiazole-5-carboxamido)methyl)-3-methylphenyl)pyrimidin-2-yl)amino)-1H-pyrazol-1-yl)cyclohexanecarboxylic acid], the IC50 is less than 500 nM in assay [1] and less than 10 nM at BTK enzyme. In the case of `Cc1cc(-c2ccnc(Nc3cnn(C4CCNCC4)c3)n2)ccc1CNC(=O)c1cnc(C(C)(C)C)s1` [Example I-45, 2-(tert-butyl)-N-(2-methyl-4-(2-((1-(piperidin-4-yl)-1H-pyrazol-4-yl)amino)pyrimidin-4-yl)benzyl)thiazole-5-carboxamide], the results for the IC50 (in assay [1]; on BTK enzyme) were less than 500 nM and less than 10 nM, respectively.

`Cc1cc(-c2ccnc(Nc3cnn(C4CCC(C(=O)O)CC4)c3)n2)ccc1CNC(=O)c1cnn(C(C)(C)C)c1` (centres unmarked) [Example I-292, 4-[4-[[4-[4-[[(1-tert-butylpyrazole-4-carbonyl)amino]methyl]-3-methyl-phenyl]pyrimidin-2-yl]amino]pyrazol-1-yl]cyclohexanecarboxylic acid]: the IC50 in assay [1] was less than 500 nM; on BTK enzyme, less than 10 nM. As to `Cc1cc(-c2cc(Nc3ccn([C@@H]4CCOC4)n3)ncn2)ccc1CNC(=O)c1cnc(C(C)(C)C)s1` [Example I-357, 2-tert-butyl-N-[[2-methyl-4-[6-[[1-[(3R)-tetrahydrofuran-3-yl]pyrazol-3-yl]amino]pyrimidin-4-yl]phenyl]methyl]thiazole-5-carboxamide], the concentration for half-maximal inhibition (IC50) in assay [1] is less than 500 nM; at BTK enzyme, less than 10 nM. For `Cc1cc(-c2cc(Nc3cc4n(n3)CCN(C)C4)ncn2)ccc1CNC(=O)N1CC[C@H](C(C)(C)C)C1` [Example I-245, (R)-3-(tert-butyl)-N-(2-methyl-4-(6-((5-methyl-4,5,6,7-tetrahydropyrazolo[1,5-a]pyrazin-2-yl)amino)pyrimidin-4-yl)benzyl)pyrrolidine-1-carboxamide], in that order: less than 500 nM and less than 10 nM. The matching figures for `Cc1cc(-c2ccnc(Nc3cnn(C)c3)n2)ccc1CNC(=O)N1CCN(C(C)(C)C)CC1` [Example I-23, 4-(tert-butyl)-N-(2-methyl-4-(2-((1-methyl-1H-pyrazol-4-yl)amino)pyrimidin-4-yl)benzyl)piperazine-1-carboxamide]: 1500 to 10000 nM and 100 to 999 nM. The matching figures for `CC(C)(C)C1CCN(C(=O)NCc2ccc(-c3ccnc(Nc4cnn(C5CC5)c4)n3)cc2C(F)(F)F)C1` (centres unmarked) [Example I-296, 3-tert-butyl-N-[[4-[2-[(1-cyclopropylpyrazol-4-yl)amino]pyrimidin-4-yl]-2-(trifluoromethyl)phenyl]methyl]pyrrolidine-1-carboxamide]: less than 500 nM and less than 10 nM.

For the compound `CN1CC(n2cc(Nc3nccc(-c4ccc(CNC(=O)c5cnn(C(C)(C)C)c5)c(C(F)(F)F)c4)n3)cn2)C1` [Example I-201, 1-(tert-butyl)-N-(4-(2-((1-(1-methylazetidin-3-yl)-1H-pyrazol-4-yl)amino)pyrimidin-4-yl)-2-(trifluoromethyl)benzyl)-1H-pyrazole-4-carboxamide], the IC50 in assay [1] was less than 500 nM; on BTK enzyme it was less than 10 nM. The matching figures for `Cc1cc(-c2cc(Nc3cc4n(n3)CCN(C)C4C)ncn2)ccc1CNC(=O)c1cnc(C(C)(C)C)s1` (centres unmarked) [Example I-283, 2-tert-butyl-N-[[4-[6-[(4,5-dimethyl-6,7-dihydro-4H-pyrazolo[1,5-a]pyrazin-2-yl)amino]pyrimidin-4-yl]-2-methyl-phenyl]methyl]thiazole-5-carboxamide]: less than 500 nM and less than 10 nM. Turning to `CN1CC[C@@H](n2cc(Nc3nccc(-c4ccc(CNC(=O)N5CCC(C(C)(C)C)C5)c(C(F)(F)F)c4)n3)cn2)C1` (stereo partly drawn) [Example I-208, 3-(tert-butyl)-N-(4-(2-((1-((R)-1-methylpyrrolidin-3-yl)-1H-pyrazol-4-yl)amino)pyrimidin-4-yl)-2-(trifluoromethyl)benzyl)pyrrolidine-1-carboxamide], the IC50 is less than 500 nM in assay [1] and less than 10 nM at BTK enzyme. With `CC(C)OC1CN(C(=O)NC2CCCCc3cc(-c4ccnc(Nc5cnn(CCO)c5)n4)ccc32)C1` (centres unmarked) [Example I-168, N-(2-(2-((1-(2-hydroxyethyl)-1H-pyrazol-4-yl)amino)pyrimidin-4-yl)-6,7,8,9-tetrahydro-5H-benzo[7]annulen-5-yl)-3-isopropoxyazetidine-1-carboxamide], the IC50 was less than 500 nM in assay [1] and less than 10 nM on BTK enzyme. The matching figures for `CCn1cc(Nc2nccc(-c3ccc(CNC(=O)N4CC(OC(C)(C)C)C4)c(C(F)(F)F)c3)n2)cn1` [Example I-203, 3-(tert-butoxy)-N-(4-(2-((1-ethyl-1H-pyrazol-4-yl)amino)pyrimidin-4-yl)-2-(trifluoromethyl)benzyl)azetidine-1-carboxamide]: less than 500 nM and less than 10 nM.

`[2H]C([2H])([2H])C(OC1CN(C(=O)NCc2ccc(-c3ccnc(Nc4cnn(CC)c4)n3)cc2C)C1)C([2H])([2H])[2H]` [Example I-262, N-[[4-[2-[(1-ethylpyrazol-4-yl)amino]pyrimidin-4-yl]-2-methyl-phenyl]methyl]-3-(1,1,1,3,3,3-d6)isopropoxy-azetidine-1-carboxamide] yielded an IC50 in assay [1] of less than 500 nM. Same read-out and setting: the same measure for `Cn1cc(Nc2nccc(-c3ccc4c(c3)CCCCC4NC(=O)c3cnn(C(C)(C)C)c3)n2)cn1` (centres unmarked) [Example I-257, 1-tert-butyl-N-[2-[2-[(1-methylpyrazol-4-yl)amino]pyrimidin-4-yl]-6,7,8,9-tetrahydro-5H-benzo[7]annulen-5-yl]pyrazole-4-carboxamide]: less than 500 nM.

On to `Nc1nccc(-c2cnc(CNC(=O)c3cc4c(s3)CCCC4)c(F)c2)n1` [Example I-113, N-((5-(2-aminopyrimidin-4-yl)-3-fluoropyridin-2-yl)methyl)-4,5,6,7-tetrahydrobenzo[b]thiophene-2-carboxamide], for which the IC50 on BTK enzyme was 100 to 999 nM.

With `Cn1cc(Nc2nccc(-c3ccc(CNC(=O)c4cc5c(s4)CCOC5)c(F)c3)n2)cn1` [Example I-117, N-(2-fluoro-4-(2-((1-methyl-1H-pyrazol-4-yl)amino)pyrimidin-4-yl)benzyl)-6,7-dihydro-4H-thieno[3,2-c]pyran-2-carboxamide], the IC50 on BTK enzyme fell in the range of 10 to 99 nM. Regarding `CNc1nccc(-c2ccc(CNC(=O)c3cnc(C(C)(C)C)s3)c(C)c2)n1` [Example I-33, 2-(tert-butyl)-N-(2-methyl-4-(2-(methylamino)pyrimidin-4-yl)benzyl)thiazole-5-carboxamide], the IC50 on BTK enzyme was 100 to 999 nM. On the same count and under the same terms, with `Cc1cc(-c2ccnc(N)n2)ccc1CNC(=O)c1cnn(C)c1` [Example I-80, N-(4-(2-aminopyrimidin-4-yl)-2-methylbenzyl)-1-methyl-1H-pyrazole-4-carboxamide] the figure was 1000 to 10000 nM. Same read-out and setting: the same measure for `Cc1cc(-c2ccnc(N)n2)ccc1CNC(=O)c1ccc2c(n1)CCNC2` [Example I-78, N-(4-(2-aminopyrimidin-4-yl)-2-methylbenzyl)-5,6,7,8-tetrahydro-1,6-naphthyridine-2-carboxamide]: more than 10000 nM; for `Nc1nccc(-c2ccc3c(c2)CCCC3NC(=O)c2cc3c(s2)CCCC3)n1` (centres unmarked) [Example I-137, N-(6-(2-aminopyrimidin-4-yl)-1,2,3,4-tetrahydronaphthalen-1-yl)-4,5,6,7-tetrahydrobenzo[b]thiophene-2-carboxamide]: less than 10 nM.
